Assay results as given in article PMC11981762 (Computational and Structural Biotechnology Journal, 2025).
Residue numbers refer to the chain shown, from its start.

Experiments:
[1] = biological target: T1, human neuronal glycine receptor α1 (Homo sapiens, UniProt P23415); test: Two-electrode voltage clamp of glycine-evoked current; format: cell-based
T1 sequence (P23415 29-457): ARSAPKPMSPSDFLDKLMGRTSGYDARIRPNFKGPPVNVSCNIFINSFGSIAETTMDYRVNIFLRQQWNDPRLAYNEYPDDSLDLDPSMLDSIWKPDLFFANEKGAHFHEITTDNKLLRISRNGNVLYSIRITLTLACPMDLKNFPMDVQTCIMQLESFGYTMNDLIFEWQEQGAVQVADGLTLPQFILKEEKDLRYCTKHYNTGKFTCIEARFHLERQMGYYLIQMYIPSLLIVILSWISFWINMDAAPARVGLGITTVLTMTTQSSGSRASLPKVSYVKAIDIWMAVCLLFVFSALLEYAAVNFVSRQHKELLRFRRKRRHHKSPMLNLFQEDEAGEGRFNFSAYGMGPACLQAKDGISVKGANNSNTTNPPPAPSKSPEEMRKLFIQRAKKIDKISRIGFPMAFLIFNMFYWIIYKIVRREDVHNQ

[2] = biological target: T2, glycine receptor α1 D130A (Homo sapiens, UniProt P23415, D142A); format: cell-based
T2 sequence (P23415 29-457 D142A): T1 sequence (P23415 29-457) with D114A

[3] = biological target: T3, glycine receptor α1 F124A + D130A (Homo sapiens, UniProt P23415, D142A/F136A); format: cell-based; conditions: double mutant α1 F124A and D130A
T3 sequence (P23415 29-457 F136A/D142A): T1 sequence (P23415 29-457) with F108A, D114A

[4] = cited from earlier work
[5] = biological target: T4, glycine receptor α1 F124A (Homo sapiens, UniProt P23415, F136A); format: cell-based
T4 sequence (P23415 29-457 F136A): T1 sequence (P23415 29-457) with F108A

5-HT3a = biological target: T5, 5-HT3a (Homo sapiens, UniProt P46098); test: Interaction with ligand-gated channel 5-HT3a
T5 sequence (P46098 24-478): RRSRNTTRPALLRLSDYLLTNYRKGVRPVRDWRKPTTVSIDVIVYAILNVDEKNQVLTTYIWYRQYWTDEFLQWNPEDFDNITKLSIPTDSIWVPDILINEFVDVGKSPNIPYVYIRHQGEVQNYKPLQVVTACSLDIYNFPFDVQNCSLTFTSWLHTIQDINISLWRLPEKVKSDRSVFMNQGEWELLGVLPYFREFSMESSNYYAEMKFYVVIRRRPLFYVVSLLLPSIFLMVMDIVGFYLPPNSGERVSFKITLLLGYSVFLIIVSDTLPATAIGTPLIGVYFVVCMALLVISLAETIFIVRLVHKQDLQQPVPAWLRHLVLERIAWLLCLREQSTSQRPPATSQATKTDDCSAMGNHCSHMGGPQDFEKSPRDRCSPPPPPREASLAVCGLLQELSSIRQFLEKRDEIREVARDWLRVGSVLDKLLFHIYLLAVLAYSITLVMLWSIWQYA

[6] = glycine concentration-response in presence of 10 µM EG
[7] = glycine concentration-response in presence of 100 µM EG

Compound: CN1C[C@H](C(=O)N[C@]2(C)O[C@@]3(O)[C@@H]4CCCN4C(=O)[C@H](Cc4ccccc4)N3C2=O)C=C2c3cccc4[nH]cc(c34)C[C@H]21 [ergotamine]
- IC50 [1]: 5.7 ± 0.7 µM
- reversal potential ([1]; application of ergotamine and glycine or glycine alone, voltage ramp −100 to +60 mV): approximately 0 mV
- inhibition of IGly in voltage ramp ([1]; ergotamine 10 µM + 100 µM glycine, at +60 mV): 42.3 ± 6.2%
- inhibition of IGly in voltage ramp ([1]; ergotamine 10 µM + 100 µM glycine, at −100 mV): 39.9 ± 4.8%
- inhibition of IGly in voltage ramp ([1]; ergotamine 100 µM + 100 µM glycine, at +60 mV): 74.6 ± 5.4%
- inhibition of IGly in voltage ramp ([1]; ergotamine 100 µM + 100 µM glycine, at −100 mV): 71.9 ± 4.1%
- voltage dependence of inhibition (current-voltage relationship) ([1]; ergotamine 10 or 100 µM + 100 µM glycine, ramps −100 to +60 mV): voltage insensitive
- reversibility of inhibition of IGly ([1]; ergotamine and glycine co-application, washout): reversible
- relation between glycine and ergotamine (competition test) ([1]; glycine 0–100 µM with or without ergotamine 10 or 100 µM): non-competitive
- Imax (maximum response) of glycine-induced current [1, 6]: 53.9 ± 2.3
- nH (Hill's coefficient) of glycine-induced current [1, 6]: 1.2 ± 0.2
- Imax (maximum response) of glycine-induced current [1, 7]: 31.7 ± 0.5
- nH (Hill's coefficient) of glycine-induced current [1, 7]: 0.9 ± 0.2
- effect on desensitization ([1]; prolonged glycine application): did not alter desensitization kinetics or induce desensitization
- inhibition at 10 µM ([1]; read-out: inhibition of the current stimulated by 100 µM glycine): 59.8 ± 2.9%
- effect of ergotamine alone on IGly ([1]; various concentrations of ergotamine without glycine, holding potential −80 mV): no effect
- nH (Hill's coefficient) ([1]; α1 wild): 1.2 ± 0.2
- Imax (maximum response) of ergotamine inhibition of glycine-evoked current ([1]; α1 wild, 100 µM glycine, −80 mV): 91.5 ± 2.2
- IC50 [2]: 28.1 ± 9.7 µM
- Imax (maximum response) of ergotamine inhibition of glycine-evoked current ([2]; α1 D130A): 32.1 ± 8.8
- nH (Hill's coefficient) ([2]; α1 D130A): 1.1 ± 0.3
- Hill coefficient [3]: 1.9 ± 0.6
- penetration across the blood-brain barrier [4]: relatively poor penetration
- IC50 [5]: 25.7 ± 2.9 µM
- Imax (maximum response) of ergotamine inhibition of glycine-evoked current ([5]; α1 F124A): 42.4 ± 1.5
- nH (Hill's coefficient) ([5]; α1 F124A): 1.3 ± 0.1
- interaction with 5-HT3a (5-HT3a): does not interact

Compound: NCC(=O)O [glycine]
- nH (Hill's coefficient) of glycine-induced current ([1]; Control, absence of ergotamine): 1.1 ± 0.3
- Imax (maximum response) of glycine-induced current ([1]; Control, absence of ergotamine, glycine 0.3 to 100 µM, −80 mV): 99.6 ± 2.4
